# Laboratory results taken from ChEMBL document CHEMBL1926576, “Fragment based lead discovery of small molecule inhibitors for the EPHA4 receptor tyrosine kinase” (Eur J Med Chem, 2012).
# Molecular target: T1, Ephrin type-A receptor 4 (Homo sapiens, UniProt P54764)
# Assay: Inhibition of his-tagged EPHA4-mediated poly(Glu,Tyr) phosphorylation after 75 mins using E4:Y1 as substrate by fluorescence assay
# T1 sequence (P54764 whole entry): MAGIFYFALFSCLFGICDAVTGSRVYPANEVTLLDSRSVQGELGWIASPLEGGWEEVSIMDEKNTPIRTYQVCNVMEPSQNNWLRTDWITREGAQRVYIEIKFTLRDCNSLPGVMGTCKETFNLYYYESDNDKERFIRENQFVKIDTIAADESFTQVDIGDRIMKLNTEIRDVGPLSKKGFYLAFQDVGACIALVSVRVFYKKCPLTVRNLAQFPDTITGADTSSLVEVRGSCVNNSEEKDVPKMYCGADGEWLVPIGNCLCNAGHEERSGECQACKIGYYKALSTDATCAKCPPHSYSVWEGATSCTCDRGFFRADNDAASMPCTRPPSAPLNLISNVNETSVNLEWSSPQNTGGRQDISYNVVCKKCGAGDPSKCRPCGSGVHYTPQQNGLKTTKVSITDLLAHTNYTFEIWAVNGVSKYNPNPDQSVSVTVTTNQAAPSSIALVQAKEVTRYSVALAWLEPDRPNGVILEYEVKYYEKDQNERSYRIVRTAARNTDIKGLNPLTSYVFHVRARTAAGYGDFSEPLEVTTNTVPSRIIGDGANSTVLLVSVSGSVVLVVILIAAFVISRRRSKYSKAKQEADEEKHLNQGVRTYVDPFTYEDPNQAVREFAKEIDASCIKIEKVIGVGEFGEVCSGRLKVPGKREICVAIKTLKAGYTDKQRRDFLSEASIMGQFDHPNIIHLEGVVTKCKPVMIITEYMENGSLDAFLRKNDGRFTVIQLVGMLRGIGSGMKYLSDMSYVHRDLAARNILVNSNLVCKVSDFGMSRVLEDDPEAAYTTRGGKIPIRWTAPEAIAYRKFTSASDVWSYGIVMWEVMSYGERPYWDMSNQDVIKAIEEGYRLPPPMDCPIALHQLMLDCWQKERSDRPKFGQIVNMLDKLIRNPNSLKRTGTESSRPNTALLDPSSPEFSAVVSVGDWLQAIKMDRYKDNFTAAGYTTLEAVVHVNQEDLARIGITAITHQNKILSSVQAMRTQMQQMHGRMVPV
row,IC50 [µM],SMILES
1,8.1,Nc1n[nH]c2nc(-c3ccccc3Cl)c3c(c12)CCCC3
2,2,Cc1ccccc1-c1nc2[nH]nc(N)c2c2c1CCCC2

# Molecular target: T1, Ephrin type-A receptor 4
# Assay: Inhibition of his-tagged EPHA4-mediated poly(Glu,Tyr) phosphorylation at 200 uM after 75 mins using E4:Y1 as substrate by fluorescence assay
row,SMILES,inhibition [%]
1,CCCc1nc2[nH]nc(N)c2c2c1COC(C)(C)C2,77
2,CCN(CC)c1nc2[nH]nc(N)c2c2c1CN(C)CC2,5
3,CC(C)c1nc2[nH]nc(N)c2c2c1COC(C)(C)C2,82
4,CN1CCc2c(c(NCCO)nc3[nH]nc(N)c23)C1,0
5,CN1CCc2c(c(N3CCOCC3)nc3[nH]nc(N)c23)C1,0
6,Nc1n[nH]c2ncc3c(c12)CCCCCC3,80
7,Cc1cc(C)c2c(NC(=O)c3ccccc3)n[nH]c2n1,10
8,Cc1nc2[nH]nc(N)c2c2c1CSC(C)(C)C2,70
9,CC1(C)Cc2c(c(-c3ccco3)[nH]c3nnc(N)c2-3)CO1,75

# Next, values leading:
row,inhibition [%],SMILES
1,87,CC1(C)Cc2c(c(-c3ccccc3)nc3[nH]nc(N)c23)CS1
2,33,CN1CCc2c(c(NCc3ccccc3)nc3[nH]nc(N)c23)C1
3,90,CC1(C)Cc2c(c(-c3ccccc3)nc3[nH]nc(N)c23)CO1

# Molecular target: T1, Ephrin type-A receptor 4
# Assay: Inhibition of his-tagged EPHA4-mediated poly(Glu,Tyr) phosphorylation at 500 uM after 75 mins using E4:Y1 as substrate by fluorescence assay
row,inhibition [%],SMILES
1,80,Nc1n[nH]c2ncc3c(c12)CCCC3
